Data as given in ChEMBL document CHEMBL1141899, “QSAR studies on 1,2-dithiole-3-thiones: modeling of lipophilicity, quinone reductase specific activity, and production of growth hormone” (Bioorg Med Chem Lett, 2005).

How the values were obtained:
[1] = biological target: NAD(P)H dehydrogenase [quinone] 1 (Homo sapiens) (UniProt P15559)
Description: Increased quinone reductase specific activity

physchem = conditions: octanol/water
Description: Partition coefficient (logP)

Sequence of NAD(P)H dehydrogenase [quinone] 1 (Homo sapiens) (P15559 whole entry): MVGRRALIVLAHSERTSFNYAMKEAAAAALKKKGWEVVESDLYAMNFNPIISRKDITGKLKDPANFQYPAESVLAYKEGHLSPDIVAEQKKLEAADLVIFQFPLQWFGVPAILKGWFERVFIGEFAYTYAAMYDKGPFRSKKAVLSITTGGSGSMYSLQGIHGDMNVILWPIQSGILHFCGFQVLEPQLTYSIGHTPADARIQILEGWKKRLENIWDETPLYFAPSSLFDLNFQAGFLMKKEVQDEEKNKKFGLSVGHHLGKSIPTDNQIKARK

Row | Structure (SMILES) | Log CDQR [1] | logP (physchem)
1 | CCc1cc(=S)ss1 | 0.903 | –
2 | COc1ccc(-c2ssc(=S)c2C)cc1 | 1.58 | –
3 | Cc1ssc(=S)c1C | 1.34 | –
4 | S=c1cc(-c2ccccc2)ss1 | 1.3 | –
5 | S=C1CC(c2cc(=S)ss2)SS1 (configuration not stated) | 0.342 | 1.8
6 | CC(C)(C)c1cc(=S)ss1 | 0.699 | 3.25
7 | Cc1c(-c2cnccn2)ssc1=S [OLTIPRAZ] | 1.34 | 2.79
8 | Cc1cc(=S)ss1 | 1.23 | 1.85
9 | S=c1ssc2c1CCCCCCCC2 | -0.602 | 2.53
10 | COc1ccc(-c2cc(=S)ss2)cc1 | 1.25 | –

The remaining lines, values ahead:

Row | Log CDQR [1] | logP (physchem) | Structure (SMILES)
11 | 0.903 | – | CCc1cssc1=S
12 | 1.08 | – | Cc1cssc1=S
13 | 0.176 | – | S=c1ccss1
14 | 1.3 | 0.01 | NC(=O)c1cc(=S)ss1
15 | 1.38 | 1.33 | O=C(O)c1cssc1=S
16 | 0.301 | – | S=c1sscc1-c1ccccc1
17 | 1.9 | 1.05 | O=C(O)c1cc(=S)ss1
18 | 1.66 | 0.3 | NC(=O)c1cssc1=S
